Patent publication US20100144743A1, “COMPOSITIONS AND METHODS FOR INHIBITION OF TYROSINE KINASES” (BOARD OF REGENTS, THE UNIVERSITY OF TEXAS SYSTEM, priority 2006, published 2010)
pEC50: −log10 of the molar value. Values joined by “and” are separate entries in the source; they are usually repeats but may differ in a detail not shown here. Equal values may be shown once. Read-outs that look alike come from different tables or passages of the source.

Columns and labels:
HIF-1 = HIF-1 GFP/DsRFP expression (G/R) in C6#4 cells stimulated by CoCl2; assay type: cell-based

Compound | G/R:WST-1 Ratio Mean (HIF-1) | pEC50 (HIF-1; read-out: G/R (EC-50)) | pEC50 (HIF-1; read-out: G/R (EC-50) 1 ex) | pEC50 (HIF-1; read-out: G/R (EC-50) 2 ex) | pEC50 (HIF-1; read-out: G/R (EC-50) 3 ex) | pEC50 (HIF-1; read-out: G/R (REC-50) Mean) | pEC50 (C6#4 cells; read-out: WST-1 (EC-50)) | pEC50 (C6#4 cells; read-out: WST-1 (EC-50) 1 ex) | pEC50 (C6#4 cells; read-out: WST-1 (EC-50) 2 ex) | pEC50 (C6#4 cells; read-out: WST-1 (EC-50) 3 ex) | pEC50 (C6#4 cells; read-out: WST-1 (EC-50) Mean) | pEC50 (HIF-1; read-out: EC 50 G/R) | cytotoxicity (C6#4 cells) | pEC50 (HIF-1; C6#4 cells, experiment 1, read-out: G/R (EC-50) 1 ex) | pEC50 (HIF-1; C6#4 cells, experiment 2, read-out: G/R (EC-50) 2 ex) | pEC50 (HIF-1; C6#4 cells, experiment 3, read-out: G/R (EC-50) 3 ex) | influence on C6#4 cells (C6#4 cells; concentration 200 μM) | pEC50 (C6#4 cells; read-out: WST-1 (EC-50) 1 ex, C6#4 cells, experiment 1) | pEC50 (HIF-1; C6#4 cells, 24 h exposure, GFP normalized to RFP, Table 2, read-out: G/R (EC-50))
c1ccc(Oc2ccc(Nc3nccn4c(-c5ccc6[nH]ccc6c5)cnc34)cc2)cc1 [LG2-7] | 5.6 and 5.633 | 5.04 | 4.85 | 5.03 | 5.41 | 5.04 | 4.45 | 4.64 | 4.40 | 4.37 | 4.45 |  |  |  |  |  |  |  | 
CN(C)CCNC(=O)c1ccc(-c2cnc3c(Nc4ccc(Oc5ccccc5)cc4)nccn23)cc1 [LG2-11] | 2.2 and 2.237 |  | 4.96 | 4.80 | 5.22 |  | 4.71 | 4.74 | 4.78 | 4.62 | 4.71 |  |  |  |  |  |  |  | 
COc1ccc(Nc2nccn3c(-c4cccc(C(N)=O)c4)cnc23)cc1 [LG2-13] |  |  |  | 5.16 | 5.05 |  |  | 5.15 | 4.00 | 4.00 |  | 5.10 | doesn't have cytotoxicity |  |  |  |  |  | 
COc1cc(-c2cnc3c(Nc4ccccc4)nccn23)ccc1O [LG2-62] | 1.5 and 1.533 | 4.72 | 4.87 | 4.61 | 4.72 | 4.72 | 4.52 | 4.71 | 4.36 | 4.57 | 4.52 |  |  |  |  |  |  |  | 
CC(C)c1ccc(Nc2nccn3c(-c4cccc(O)c4)cnc23)cc1 [LG2-65] |  |  |  |  |  |  |  |  |  |  |  |  |  | 2.04 | 2.41 | 2.25 | doesn't influence | 4.25 | 
COc1cc(Nc2nccn3c(-c4cccc(C(C)=O)c4)cnc23)cc(OC)c1OC [LG2-75] | 1.2 and 1.233 | 4.83 | 5.36 | 4.79 | 4.63 | 4.83 | 4.78 | 5.15 | 4.78 | 4.57 | 4.78 |  |  |  |  |  |  |  | 
CC(=O)c1cccc(-c2cnc3c(Nc4ccc(N5CCOCC5)cc4)nccn23)c1 [LG2-81] | 3.7 | 4.98 | 5.06 | 4.91 | 4.98 | 4.98 | 4.41 | 4.49 | 4.40 | 4.36 | 4.41 |  |  |  |  |  |  |  | 
COc1cccc(-c2cnc3c(Nc4ccccc4)nccn23)c1 [LG2-85] | 2.0 and 2.033 | 4.63 | 4.62 | 4.64 | 4.63 | 4.63 | 4.32 | 4.46 | 4.38 | 4.17 | 4.32 |  |  |  |  |  |  |  | 
c1ccc2c(-c3cnc4c(Nc5ccc6[nH]ccc6c5)nccn34)cccc2c1 [LG2-89] | 1.4 and 1.383 | 4.55 | 4.86 | 4.37 | 4.57 | 4.55 | 4.45 | 4.67 | 4.39 | 4.35 | 4.45 |  |  |  |  |  |  |  | 
O=C(NCCO)c1cccc(-c2cnc3c(NCc4cccs4)nccn23)c1 [LG2-98] |  |  |  |  |  |  |  |  |  |  |  |  |  |  |  |  |  |  | 4.69
COc1cc(OC)cc(-c2cnc3c(NCC4CC4)nccn23)c1 [LG2-102] |  | 4.43 |  |  |  |  | 4.28 |  |  |  |  |  |  |  |  |  |  |  | 
